{"source": "patent US20240166652A1", "about": "“MODULATORS OF THE INTEGRATED STRESS PATHWAY” (Calico Life Sciences LLC, priority 2017, published 2024)", "key": {"[1]": {"target": "T1, eIF2B mutant B4 R357W (HEK293T ATF4-Fluc cells) (Homo sapiens, UniProt P49770+Q9UI10, R357W)", "T1 construct": "endogenous in cells", "T1 sequence (Q9UI10 whole entry R357W)": "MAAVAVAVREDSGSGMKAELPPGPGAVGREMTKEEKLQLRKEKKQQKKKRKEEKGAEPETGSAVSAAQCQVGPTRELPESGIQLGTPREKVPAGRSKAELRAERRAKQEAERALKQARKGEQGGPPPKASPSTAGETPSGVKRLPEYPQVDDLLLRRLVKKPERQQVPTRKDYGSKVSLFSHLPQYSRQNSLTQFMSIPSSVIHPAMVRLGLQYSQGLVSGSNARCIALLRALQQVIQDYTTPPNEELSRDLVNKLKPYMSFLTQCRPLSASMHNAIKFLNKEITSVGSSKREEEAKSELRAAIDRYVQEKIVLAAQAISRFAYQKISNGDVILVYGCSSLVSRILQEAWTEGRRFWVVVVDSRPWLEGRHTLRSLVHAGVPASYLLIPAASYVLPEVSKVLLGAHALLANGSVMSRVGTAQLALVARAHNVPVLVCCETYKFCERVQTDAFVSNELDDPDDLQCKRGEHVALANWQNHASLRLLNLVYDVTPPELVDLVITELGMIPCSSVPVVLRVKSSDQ", "T1 sequence (Q14232 whole entry partner)": "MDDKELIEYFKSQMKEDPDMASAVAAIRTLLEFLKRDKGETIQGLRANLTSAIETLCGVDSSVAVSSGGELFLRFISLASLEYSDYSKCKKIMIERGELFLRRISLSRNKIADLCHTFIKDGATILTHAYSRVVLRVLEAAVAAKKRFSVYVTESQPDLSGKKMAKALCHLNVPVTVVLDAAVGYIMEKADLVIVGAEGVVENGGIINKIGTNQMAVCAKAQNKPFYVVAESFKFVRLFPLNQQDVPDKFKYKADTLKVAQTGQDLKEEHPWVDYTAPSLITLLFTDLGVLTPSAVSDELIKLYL", "T1 sequence (P49770 whole entry)": "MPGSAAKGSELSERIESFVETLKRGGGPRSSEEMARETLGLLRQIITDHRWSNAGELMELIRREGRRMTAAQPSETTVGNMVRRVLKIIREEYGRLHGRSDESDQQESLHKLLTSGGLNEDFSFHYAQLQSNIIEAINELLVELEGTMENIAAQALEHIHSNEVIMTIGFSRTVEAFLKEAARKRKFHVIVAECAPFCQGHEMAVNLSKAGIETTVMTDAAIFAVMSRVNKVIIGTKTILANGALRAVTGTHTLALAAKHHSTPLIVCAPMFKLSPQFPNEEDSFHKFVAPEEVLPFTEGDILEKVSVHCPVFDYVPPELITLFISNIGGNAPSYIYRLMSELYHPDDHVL", "T1 sequence (Q9NR50 whole entry partner)": "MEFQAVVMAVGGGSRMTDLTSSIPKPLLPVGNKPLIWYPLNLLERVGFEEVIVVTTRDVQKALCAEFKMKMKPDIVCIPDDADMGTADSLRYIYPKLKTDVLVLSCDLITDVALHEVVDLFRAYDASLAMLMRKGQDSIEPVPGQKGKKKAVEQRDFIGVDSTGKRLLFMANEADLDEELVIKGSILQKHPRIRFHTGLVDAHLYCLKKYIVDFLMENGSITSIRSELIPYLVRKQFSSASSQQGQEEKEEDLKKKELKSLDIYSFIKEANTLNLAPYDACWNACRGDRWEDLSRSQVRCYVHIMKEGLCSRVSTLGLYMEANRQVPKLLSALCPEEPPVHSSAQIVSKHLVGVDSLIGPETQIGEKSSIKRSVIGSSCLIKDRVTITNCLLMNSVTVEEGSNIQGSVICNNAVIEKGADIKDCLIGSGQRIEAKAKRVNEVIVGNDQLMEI", "T1 sequence (Q13144 whole entry partner)": "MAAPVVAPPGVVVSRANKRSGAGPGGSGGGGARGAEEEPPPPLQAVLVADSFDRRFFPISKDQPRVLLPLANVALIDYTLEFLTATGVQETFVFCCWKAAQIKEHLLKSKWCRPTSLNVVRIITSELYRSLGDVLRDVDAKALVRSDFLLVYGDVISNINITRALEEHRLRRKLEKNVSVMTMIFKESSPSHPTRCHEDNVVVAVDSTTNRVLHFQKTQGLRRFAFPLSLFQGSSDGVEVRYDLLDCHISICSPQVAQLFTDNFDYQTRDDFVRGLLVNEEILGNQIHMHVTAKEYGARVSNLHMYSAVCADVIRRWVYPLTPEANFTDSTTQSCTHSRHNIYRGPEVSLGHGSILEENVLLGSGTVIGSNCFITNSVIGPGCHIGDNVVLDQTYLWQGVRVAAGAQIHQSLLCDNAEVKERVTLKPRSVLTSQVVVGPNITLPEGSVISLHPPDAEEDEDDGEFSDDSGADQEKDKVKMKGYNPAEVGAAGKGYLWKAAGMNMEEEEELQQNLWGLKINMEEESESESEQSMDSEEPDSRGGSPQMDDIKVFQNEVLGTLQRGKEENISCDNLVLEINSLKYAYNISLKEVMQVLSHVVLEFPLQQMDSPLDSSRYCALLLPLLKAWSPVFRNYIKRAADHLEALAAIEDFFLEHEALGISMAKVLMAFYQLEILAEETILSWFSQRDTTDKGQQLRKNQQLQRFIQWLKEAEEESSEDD", "experiment": "ATF4-Luc assay, VWMD eIF2B mutant B4 R357W", "type": "cell-based", "details": "1 μg/mL tunicamycin, 7 hours", "description": "(§1) In order to test exemplary compounds of the invention in a cellular context, a stable VWMD cell line was first constructed. The ATF4 reporter was prepared by fusing the human full-length ATF4 5′-UTR (NCBI Accession No. BC022088.2) in front of the firefly luciferase (FLuc) coding sequence lacking the initiator methionine as described in Sidrauski et al (eLife 2013). The construct was used to produce recombinant retroviruses using standard methods and the resulting viral supernatant was used to transduce HEK293T cells, which were then subsequently selected with puromycin to generate a stable cell line.\n(§2) HEK293T cells carrying the ATF4 luciferase reporter were plated on polylysine coated 384-well plates (Greiner Bio-one) at 30,000 cells per well. Cells were treated the next day with 1 μg/mL tunicamycin and 200 nM of a compound of Formula (I) for 7 hours. Luminescence was measured using One Glo (Promega) as specified by the manufacturer. Cells were maintained in DMEM with L-glutamine supplemented with 10% heat-inactivated FBS (Gibco) and Antibiotic-Antimycotic solution (Gibco).\n(§3) VWMD mutations were introduced into the genome of the HEK293T ATF4-Fluc stable cell lines by using Gene Art CRISPR nuclease vector with OFP Reporter kit (ThermoFisher; see Table 3 below). Guide RNAs were designed using the CRISPR Design Tool (http://crispr.mit.edu) and ligated into the CRISPR OFP Nuclease Vector. To obtain homology directed repair (HDR) incorporating VWMD point mutations in the genome, 150 bp ssDNA ultramer oligos were synthesized by Integrated DNA Technologies containing specific mutations of interest. In addition to the VWMD mutations, the ssDNA HDR templates contained a silent mutation to the PAM site of the CRISPR gRNA sequence (to avoid further Cas9 cutting) and 75 bp of homology on each side of the mutation.\n(§4) HEK293T ATF4-Fluc cells were transfected with 500 ng of the CRISPR OFP Nuclease Vector and 1 uL of 10 μM ssDNA HDR template using lipofectamine 3000 (ThermoFisher) or SF Cell Line 4D-nucleofector X Kit (Lonza) according to the manufacturer's instructions. After 2-3 days of recovery, single cells were sorted for positive OFP expression on a FACS Aria II (BD Biosciences) into wells of a 96 well plate and allowed to recover for 1-2 weeks.\n(§5) The resulting clones were surveyed for CRISPR editing and HDR by harvesting the genomic DNA with the PureLink Genomic DNA kit (ThermoFisher), amplifying a […] locus near the editing site, and sequencing the amplicon. […] Typical clones obtained were hemizygous for the VWMD point mutation, with one or two alleles harboring the desired mutation, and the remaining alleles knocked out (edited to produce a premature stop codon). […]"}, "[2]": {"system": "ATF4 luciferase reporter in HEK293T cells", "experiment": "ATF4-Luc assay (ATF4 luciferase reporter, tunicamycin-treated HEK293T cells)", "type": "cell-based, human", "details": "Homo sapiens, HEK-293T; HEK293T cells carrying the ATF4 luciferase reporter, 1 μg/mL tunicamycin, 7 hours"}, "[3]": {"target": "T2, eIF2B mutant B3 H341Q (HEK293T ATF4-Fluc cells) (Homo sapiens, UniProt P49770+Q9NR50+Q9UI10, H341Q)", "T2 construct": "endogenous in cells", "T2 sequence (Q9NR50 whole entry H341Q)": "as the sequence (Q9NR50 whole entry partner) above, with H341Q counted along it", "T2 sequence (Q14232 whole entry partner)": "as the sequence (Q14232 whole entry partner) above", "T2 sequence (P49770 whole entry)": "as the sequence (P49770 whole entry) above", "T2 sequence (Q9UI10 whole entry)": "as the sequence (Q9UI10 whole entry R357W) above, with W357R counted along it", "T2 sequence (Q13144 whole entry partner)": "as the sequence (Q13144 whole entry partner) above", "experiment": "ATF4-Luc assay, VWMD eIF2B mutant B3 H341Q", "type": "cell-based", "details": "1 μg/mL tunicamycin, 7 hours", "description": "as §1, §2, §3, §4, §5"}, "[4]": {"target": "T3, eIF2B mutant B1 V183F (HEK293T ATF4-Fluc cells) (Homo sapiens, UniProt P49770+Q14232+Q9UI10, V183F)", "T3 construct": "endogenous in cells", "T3 sequence (Q14232 whole entry V183F)": "as the sequence (Q14232 whole entry partner) above, with V183F counted along it", "T3 sequence (P49770 whole entry)": "as the sequence (P49770 whole entry) above", "T3 sequence (Q9NR50 whole entry partner)": "as the sequence (Q9NR50 whole entry partner) above", "T3 sequence (Q9UI10 whole entry)": "as the sequence (Q9UI10 whole entry R357W) above, with W357R counted along it", "T3 sequence (Q13144 whole entry partner)": "as the sequence (Q13144 whole entry partner) above", "experiment": "ATF4-Luc assay, VWMD eIF2B mutant B1 V183F", "type": "cell-based", "details": "1 μg/mL tunicamycin, 7 hours", "description": "as §1, §2, §3, §4, §5"}, "[5]": {"target": "T4, eIF2B mutant B3 I346T (HEK293T ATF4-Fluc cells) (Homo sapiens, UniProt P49770+Q9NR50+Q9UI10, I346T)", "T4 construct": "endogenous in cells", "T4 sequence (Q9NR50 whole entry I346T)": "as the sequence (Q9NR50 whole entry partner) above, with I346T counted along it", "T4 sequence (Q14232 whole entry partner)": "as the sequence (Q14232 whole entry partner) above", "T4 sequence (P49770 whole entry)": "as the sequence (P49770 whole entry) above", "T4 sequence (Q9UI10 whole entry)": "as the sequence (Q9UI10 whole entry R357W) above, with W357R counted along it", "T4 sequence (Q13144 whole entry partner)": "as the sequence (Q13144 whole entry partner) above", "experiment": "ATF4-Luc assay, VWMD eIF2B mutant B3 I346T", "type": "cell-based", "details": "1 μg/mL tunicamycin, 7 hours", "description": "as §1, §2, §3, §4, §5"}, "[6]": {"target": "T5, eIF2B mutant B5 R113H (HEK293T ATF4-Fluc cells) (Homo sapiens, UniProt P49770+Q13144+Q9UI10, R113H)", "T5 construct": "endogenous in cells", "T5 sequence (Q13144 whole entry R113H)": "as the sequence (Q13144 whole entry partner) above, with R113H counted along it", "T5 sequence (Q14232 whole entry partner)": "as the sequence (Q14232 whole entry partner) above", "T5 sequence (P49770 whole entry)": "as the sequence (P49770 whole entry) above", "T5 sequence (Q9NR50 whole entry partner)": "as the sequence (Q9NR50 whole entry partner) above", "T5 sequence (Q9UI10 whole entry)": "as the sequence (Q9UI10 whole entry R357W) above, with W357R counted along it", "experiment": "ATF4-Luc assay, VWMD eIF2B mutant B5 R113H", "type": "cell-based", "details": "1 μg/mL tunicamycin, 7 hours", "description": "as §1, §2, §3, §4, §5"}, "[7]": {"target": "T6, eIF2B mutant B4 R483W (HEK293T ATF4-Fluc cells) (Homo sapiens, UniProt P49770+Q9UI10, R483W)", "T6 construct": "endogenous in cells", "T6 sequence (Q9UI10 whole entry R483W)": "as the sequence (Q9UI10 whole entry R357W) above, with W357R, R483W counted along it", "T6 sequence (Q14232 whole entry partner)": "as the sequence (Q14232 whole entry partner) above", "T6 sequence (P49770 whole entry)": "as the sequence (P49770 whole entry) above", "T6 sequence (Q9NR50 whole entry partner)": "as the sequence (Q9NR50 whole entry partner) above", "T6 sequence (Q13144 whole entry partner)": "as the sequence (Q13144 whole entry partner) above", "experiment": "ATF4-Luc assay, VWMD eIF2B mutant B4 R483W", "type": "cell-based", "details": "1 μg/mL tunicamycin, 7 hours", "description": "as §1, §2, §3, §4, §5"}, "[8]": {"target": "T7, eIF2B mutant B5 R195H (HEK293T ATF4-Fluc cells) (Homo sapiens, UniProt P49770+Q13144+Q9UI10, R195H)", "T7 construct": "endogenous in cells", "T7 sequence (Q13144 whole entry R195H)": "as the sequence (Q13144 whole entry partner) above, with R195H counted along it", "T7 sequence (Q14232 whole entry partner)": "as the sequence (Q14232 whole entry partner) above", "T7 sequence (P49770 whole entry)": "as the sequence (P49770 whole entry) above", "T7 sequence (Q9NR50 whole entry partner)": "as the sequence (Q9NR50 whole entry partner) above", "T7 sequence (Q9UI10 whole entry)": "as the sequence (Q9UI10 whole entry R357W) above, with W357R counted along it", "experiment": "ATF4-Luc assay, VWMD eIF2B mutant B5 R195H", "type": "cell-based", "details": "1 μg/mL tunicamycin, 7 hours", "description": "as §1, §2, §3, §4, §5"}}, "data": [{"smiles": "O=C(COc1ccc(Cl)cc1)NC12CC(NC(=O)COc3ccc(Cl)cc3)(C1)C2", "note": "[Compound 112, N,N′-(bicyclo[1.1.1]pentane-1,3-diyl)bis[2-(4-chlorophenoxy)acetamide]]", "values": [{"measurement": "EC50", "setting": "[1]", "value": "< 10", "unit": "nM"}, {"measurement": "EC50", "setting": "[2]", "value": "< 10", "unit": "nM"}, {"measurement": "EC50", "setting": "[3]", "value": "< 10", "unit": "nM"}, {"measurement": "EC50", "setting": "[4]", "value": "< 10", "unit": "nM"}, {"measurement": "EC50", "setting": "[5]", "value": "< 10", "unit": "nM"}, {"measurement": "EC50", "setting": "[6]", "value": "< 10", "unit": "nM"}, {"measurement": "EC50", "setting": "[7]", "value": "< 10", "unit": "nM"}, {"measurement": "EC50", "setting": "[8]", "value": "< 10", "unit": "nM"}]}, {"smiles": "O=C(COc1ccc(Cl)c(F)c1)NC12CCC(NC(=O)COc3ccc(Cl)c(F)c3)(CC1)[C@@H](O)C2", "note": "(single isomer, unassigned) [Compound 297]", "values": [{"measurement": "EC50", "setting": "[1]", "value": "< 10", "unit": "nM"}, {"measurement": "EC50", "setting": "[2]", "value": "< 10", "unit": "nM"}, {"measurement": "EC50", "setting": "[3]", "value": "< 10", "unit": "nM"}, {"measurement": "EC50", "setting": "[4]", "value": "< 10", "unit": "nM"}, {"measurement": "EC50", "setting": "[5]", "value": "< 10", "unit": "nM"}, {"measurement": "EC50", "setting": "[6]", "value": "< 10", "unit": "nM"}, {"measurement": "EC50", "setting": "[7]", "value": "< 10", "unit": "nM"}, {"measurement": "EC50", "setting": "[8]", "value": "< 10", "unit": "nM"}]}, {"smiles": "Cc1noc(COCC(=O)NC23CC(NC(=O)COc4ccc(Cl)c(F)c4)(C2)C3)n1", "note": "[Compound 217, 2-(4-chloro-3-fluorophenoxy)-N-(3-{2-[(3-methyl-1,2,4-oxadiazol-5-yl)methoxy]acetamido}bicyclo[1.1.1]pentan-1-yl)acetamide]", "values": [{"measurement": "EC50", "setting": "[1]", "value": "500 to 2000", "unit": "nM"}, {"measurement": "EC50", "setting": "[2]", "value": "500 to 2000", "unit": "nM"}, {"measurement": "EC50", "setting": "[3]", "value": "500 to 2000", "unit": "nM"}, {"measurement": "EC50", "setting": "[4]", "value": "> 2000", "unit": "nM"}, {"measurement": "EC50", "setting": "[5]", "value": "500 to 2000", "unit": "nM"}, {"measurement": "EC50", "setting": "[6]", "value": "> 2000", "unit": "nM"}, {"measurement": "EC50", "setting": "[7]", "value": "> 2000", "unit": "nM"}, {"measurement": "EC50", "setting": "[8]", "value": "500 to 2000", "unit": "nM"}]}, {"smiles": "O=C(COc1ccc(C(F)(F)F)nc1)NC12CC(NC(=O)COc3ccc(Cl)c(F)c3)(C1)C2", "note": "[Compound 175, 2-(4-chloro-3-fluorophenoxy)-N-[3-(2-{[6-(trifluoromethyl)pyridin-3-yl]oxy}acetamido)bicyclo[1.1.1]pentan-1-yl]acetamide]", "values": [{"measurement": "EC50", "setting": "[1]", "value": "10 to 50", "unit": "nM"}, {"measurement": "EC50", "setting": "[2]", "value": "< 10", "unit": "nM"}, {"measurement": "EC50", "setting": "[3]", "value": "10 to 50", "unit": "nM"}, {"measurement": "EC50", "setting": "[4]", "value": "50 to 250", "unit": "nM"}, {"measurement": "EC50", "setting": "[5]", "value": "< 10", "unit": "nM"}, {"measurement": "EC50", "setting": "[6]", "value": "10 to 50", "unit": "nM"}, {"measurement": "EC50", "setting": "[7]", "value": "< 10", "unit": "nM"}, {"measurement": "EC50", "setting": "[8]", "value": "10 to 50", "unit": "nM"}]}, {"smiles": "CN(C)c1ccc(CCOCC(=O)NC23CC(NC(=O)COc4ccc(Cl)c(F)c4)(C2)C3)cc1", "note": "[Compound 143, 2-(4-chloro-3-fluorophenoxy)-N-[3-(2-{2-[4-(dimethylamino)phenyl]ethoxy}-acetamido)bicyclo[1.1.1]pentan-1-yl]acetamide]", "values": [{"measurement": "EC50", "setting": "[2]", "value": "> 2000", "unit": "nM"}]}, {"smiles": "CN(C)c1cccc(CCOCC(=O)NC23CC(NC(=O)COc4ccc(Cl)c(F)c4)(C2)C3)c1", "note": "[Compound 145, 2-(4-chloro-3-fluorophenoxy)-N-[3-(2-{2-[3-(dimethylamino)phenyl]ethoxy}-acetamido)bicyclo[1.1.1]pentan-1-yl]acetamide]", "values": [{"measurement": "EC50", "setting": "[2]", "value": "> 2000", "unit": "nM"}]}, {"smiles": "O=C(COc1ccc(Cl)c(F)c1)NC12CCC(NC(=O)COc3cccc(F)c3)(CC1)[C@@H](O)C2", "note": "[Compound 659, 2-(4-chloro-3-fluorophenoxy)-N-{(3S)-4-[2-(3-fluorophenoxy)acetamido]-3-hydroxybicyclo[2.2.2]octan-1-yl}acetamide]", "values": [{"measurement": "EC50", "setting": "[2]", "value": "< 10", "unit": "nM"}]}, {"smiles": "Cc1cc(F)ncc1OCC(=O)NC12CC(NC(=O)COc3ccc(Cl)c(F)c3)(C1)C2", "note": "[Compound 247, 2-(4-chloro-3-fluorophenoxy)-N-(3-{2-[(6-fluoro-4-methylpyridin-3-yl)oxy]acetamido}bicyclo[1.1.1]pentan-1-yl)acetamide]", "values": [{"measurement": "EC50", "setting": "[2]", "value": "50 to 250", "unit": "nM"}]}]}
